Measurements as given in paper PMC8747000, “Synthesis, Pharmacological Evaluation, and Computational Studies of Cyclic Opioid Peptidomimetics Containing β^3-Lysine” (Molecules, 2021).
Where two headings read alike, the source gives them in different places. Peptide text beside a SMILES is read from it.

Key:
[1] = compared with EM-2; cited from earlier work
Description: Endomorphins are very short peptides lacking reactive side chain groups, which makes their cyclization difficult. […] In order to obtain cyclic analogs based on the structure of EM-2 but still to preserve the free N-terminal amino group, we introduced into the sequence of EM-2 additional amino acids with functionalized side chains. A pentapeptide analog Tyr-c[D-Lys-Phe-Phe-Asp]NH2 (designated RP-170), ...

MOR [2] = biological target: T1, MOR (Homo sapiens, UniProt P35372); test: Opioid receptor binding assay, competitive displacement of [3H]DAMGO; design: purchased PerkinElmer; host or cells: CHO cells
Protocol: (§1) The binding affinities of cyclopeptides RP-171 and RP-172 toward MOR, DOR, and KOR were determined by competitive binding against [^3H]DAMGO, [^3H][D-Ala^2]deltorphin-2, and U-69593, respectively, using membranes of CHO cells transfected with opioid receptors and are summarized in Table 1.
(§2) The opioid receptor binding assays were performed according to the described method, using commercial membranes of Chinese Hamster Ovary (CHO) cells transfected with human opioid receptors. The binding affinities for MOR, DOR, and KOR were determined by radioligand competition analysis using [^3H]DAMGO, [^3H]deltorphin-2, and [^3H]U-69593, respectively, as specific radioligands, respectively. Membrane preparations were incubated at 25 °C for 120 min with appropriate concentrations of a tested peptide in the presence of 0.5 nM radioligand in a total volume of 0.5 ml of 50 mM Tris/HCl (pH 7.4) containing bovine serum albumin (BSA) (1 mg/mL), bacitracin (50 µg/mL), bestatin (30 µM), and captopril (10 µM). Non-specific binding was determined in the presence of 1 µM naloxone. Incubations were terminated by the rapid filtration through the GF/B Whatman (Brentford, UK) glass fiber strips (pre-soaked for 2 h in 0.5% (v/v) polyethylamine) using Millipore Sampling Manifold (Billerica, MA, USA). The filters were washed three times with 4 ml of ice-cold Tris buffer solution. The bound radioactivity was measured in a Packard Tri-Carb 2100 TR liquid scintillation counter (Ramsey, MN, USA) after overnight extraction of the filters in 4 mL of a Perkin Elmer Ultima Gold scintillation fluid (Wellesley, MA, USA). Three independent experiments for each assay were carried out in duplicate. The data were analyzed by a nonlinear least square regression analysis computer program Graph Pad PRISM 6.0 (Graph Pad Software Inc., San Diego, CA, USA). The IC50 values were determined from the logarithmic concentration–displacement curves, and the values of the inhibitory constants (Ki) were calculated according to the equation of Cheng and Prusoff.

DOR [3] = biological target: T2, DOR (Homo sapiens, UniProt P41143); test: Opioid receptor binding assay, competitive displacement of [3H]deltorphin-2; design: purchased PerkinElmer; host or cells: CHO cells
Protocol: as §1, §2

KOR [4] = biological target: T3, KOR (Homo sapiens, UniProt P41145); test: Opioid receptor binding assay, competitive displacement of [3H]U-69593; design: purchased PerkinElmer; host or cells: CHO cells
Protocol: as §1, §2

MOR [5] = biological target: T1, MOR; test: Calcium mobilization assay, CHO-MOR cells; assay type: cell-based; design: expressed in transfected cells; host or cells: CHO cells (gift from Prof. Girolamo Calo, University of Padova); conditions: for MOR α ± SEM (intrinsic activity): Emax ratio of tested compound and standard agonist dermorphin, CHO cells co-expressing human MOR and Gαqi5
DOR [6] = biological target: T2, DOR; test: Calcium mobilization assay, CHO-DOR cells; assay type: cell-based; design: expressed in transfected cells; host or cells: CHO cells (gift from Prof. Girolamo Calo, University of Padova); conditions: n ≥ 3; for DOR pEC50 (CL95%): CHO cells co-expressing human recombinant DOR and GαqG66Di5, Fluo-4 AM fluorescence, FlexStation II; for DOR α ± SEM (intrinsic activity): Emax ratio of tested compound and standard agonist DPDPE, CHO cells co-expressing human DOR and GαqG66Di5
KOR [7] = biological target: T3, KOR; test: Calcium mobilization assay, CHO-KOR cells; assay type: cell-based; design: expressed in transfected cells; host or cells: CHO cells (gift from Prof. Girolamo Calo, University of Padova); conditions: for KOR α ± SEM (intrinsic activity): Emax ratio of tested compound and standard agonist dynorphin A, CHO cells co-expressing human KOR and Gαqi5
[8] = Reversed-phase HPLC retention (chromatographic behavior as indication of lipophilicity); assay type: physicochemical; conditions: RP-HPLC, Vydac C18 column (5 μm, 4.6 x 250 mm); A 0.1% TFA in water, B 80% acetonitrile in water with 0.1% TFA; linear gradient 0–100% B over 50 min; 1 mL/min; uncalibrated retention time
Description: During the routine LC-MS analysis of analogs RP-171 and RP-172, we noticed a distinct difference in retention times and MS^n patterns for these diastereoisomeric peptides. To confirm our observation, we subjected a mixture of these peptides to LC-MS and MS^n experiments. […] It is interesting that the elution order from the biphenyl column was the same as from the C18 column.
All protected α-amino acids were purchased from Bachem A (Bubendorf, Switzerland). Opioid radioligands, [^3H]DAMGO, [^3H]deltorphin-2, and [^3H]U-69593, and human recombinant opioid receptors were purchased from PerkinElmer (Krakow, Poland). GF/B glass fiber strips were obtained from Whatman (Brentford, UK). Purity of peptides was determined by RP-HPLC and exact mass. Analytical and semi-preparative RP-HPLC was performed using Waters Breeze instrument (Milford, MA, USA) with dual absorbance detector (Waters 2487, MA, USA). […] For LC-MS experiments, Aeris Peptide C18 and Kinetex Biphenyl (Phenomenex, Torrance, CA, USA) were used, in a gradient reversed-phase mode, from 5 to 80% acetonitrile in water (both containing 0.1% HCOOH). ^1H NMR spectra were recorded on a 500 MHz Brucker instrument in DMSO-d6, using residual DMSO as a resonance reference at 2.5 ppm. […]

[9] = membranes of CHO cells transfected with human opioid receptors, 0.5 nM [3H]DAMGO, 25 °C, 120 min, 50 mM Tris/HCl pH 7.4, Cheng-Prusoff, mean ± SEM, n = 3, read-out: Ki MOR
[10] = membranes of CHO cells transfected with human opioid receptors, 0.5 nM [3H]deltorphin-2, 25 °C, 120 min, 50 mM Tris/HCl pH 7.4, Cheng-Prusoff, mean ± SEM, n = 3, read-out: Ki DOR
[11] = CHO cells co-expressing human recombinant MOR and Gαqi5, Fluo-4 AM fluorescence, FlexStation II, n ≥ 3, read-out: MOR pEC50 (CL95%) (converted)

Compound | stability in the rat brain homogenate [1] | Ki (MOR [2]; SEM) [nM] | Ki (DOR [3]; SEM) [nM] | Ki (KOR [4]; SEM) [nM] | EC50 (MOR [5]) [nM] | DOR pEC50 (CL95%) (DOR [6]) | DOR α ± SEM (intrinsic activity) (DOR [6]) | EC50 (KOR [7]) [nM] | HPLC tR [8] [min] | Ki (MOR [2]; [9]) [nM] | Ki (DOR [3]; [10]) [nM] | Ki (KOR [4]; membranes of CHO cells transfected with human opioid receptors, 0.5 nM [3H]U-69593, 25 °C, 120 min, 50 mM Tris/HCl pH 7.4, Cheng-Prusoff, mean ± SEM, n = 3, SEM, read-out: Ki KOR) [nM] | loss of affinity for KOR as compared with the parent RP-170 (KOR [4]; ratio of Ki values versus RP-170) [fold] | EC50 (MOR [5]; [11]) [nM] | MOR α ± SEM (intrinsic activity) (MOR [5]; n ≥ 3) | EC50 (KOR [7]; CHO cells co-expressing human recombinant KOR and Gαqi5, Fluo-4 AM fluorescence, FlexStation II, n ≥ 3, read-out: KOR pEC50 (CL95%) (converted)) [nM] | KOR α ± SEM (intrinsic activity) (KOR [7]; n ≥ 3) | KOR α ± SEM (intrinsic activity) (KOR [7]; n ≥ 3, SEM) | Ki (KOR [4]; membranes of CHO cells transfected with human opioid receptors, 0.5 nM [3H]U-69593, 25 °C, 120 min, 50 mM Tris/HCl pH 7.4, Cheng-Prusoff, mean ± SEM, n = 3, read-out: Ki KOR) [nM] | KOR pEC50 (CL95%) (KOR [7]; CHO cells co-expressing human recombinant KOR and Gαqi5, Fluo-4 AM fluorescence, FlexStation II, n ≥ 3)
NC(=O)[C@@H]1CC(=O)NCCCC[C@@H](NC(=O)[C@@H](N)Cc2ccc(O)cc2)C(=O)N[C@@H](Cc2ccccc2)C(=O)N[C@@H](Cc2ccccc2)C(=O)N1 [RP-170, Tyr-c[D-Lys-Phe-Phe-Asp]NH2] (HELM PEPTIDE1{Y.[dK].F.F.D.[am]}$PEPTIDE1,PEPTIDE1,2:R3-5:R3$$$V2.0) | much more stable than EM-2 | 0.55 ± 0.02 | 198 ± 4.5 | 1.52 ± 0.2 | 1.17 | inactive | inactive | 2.51 | – | – | – | – | – | – | – | – | – | – | – | –
NC(=O)[C@@H]1CC(=O)NCCC[C@@H](NC(=O)[C@@H](N)Cc2ccc(O)cc2)CC(=O)N[C@@H](Cc2ccccc2)C(=O)N[C@@H](Cc2ccccc2)C(=O)N1 [RP-171, Tyr-c[(R)-β^3-Lys-Phe-Phe-Asp]NH2] | – | – | – | – | – | inactive | inactive | – | 14.05 | 29 ± 4.32 | > 1000 | 420 ± 23 | 276 | 135 | 0.82 ± 0.02 | 1020 | 0.82 | 0.82 ± 0.05 | – | –
NC(=O)[C@@H]1CC(=O)NCCC[C@H](NC(=O)[C@@H](N)Cc2ccc(O)cc2)CC(=O)N[C@@H](Cc2ccccc2)C(=O)N[C@@H](Cc2ccccc2)C(=O)N1 [RP-172, Tyr-c[(S)-β^3-Lys-Phe-Phe-Asp]NH2] | – | – | – | – | – | inactive | inactive | – | 14.36 | 950 ± 45 | > 1000 | – | – | 3550 | 0.45 ± 0.02 | – | inactive | – | > 1000 | inactive
